Test results from PubChem BioAssay (NCI).
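Interpolation was linear, between the two tested concentrations surrounding the appropriate level; five concentrations were tested over 48 hours in 96-well plates. At the GI50, growth is halved. TGI: concentration producing complete growth inhibition.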

Tests used:
Test in all cases: DTP human tumour cell line panel, 48 h
SF-295 CNS = system: SF-295 CNS
OVCAR-8 ovarian = system: OVCAR-8 ovarian
TK-10 renal = system: TK-10 renal
MALME-3M melanoma = system: MALME-3M melanoma
HOP-92 NSCLC = system: HOP-92 NSCLC
HS 578T breast = system: HS 578T breast
OVCAR-5 ovarian = system: OVCAR-5 ovarian
EKVX NSCLC = system: EKVX NSCLC
HOP-62 NSCLC = system: HOP-62 NSCLC
IGROV1 ovarian = system: IGROV1 ovarian

COC1=NCc2ccccc2-c2ccccc21
TGI (SF-295 CNS): > 100 µM
TGI (OVCAR-8 ovarian): > 100 µM
TGI (TK-10 renal): > 100 µM
TGI (MALME-3M melanoma): > 100 µM

COc1ccc([C@H]2[C@H]3COC(=O)[C@H]3C(C#N)=C3Sc4ccccc4N32)cc1
TGI (HOP-92 NSCLC): > 100 µM
TGI (SF-295 CNS): > 90.8 µM
TGI (HS 578T breast): > 100 µM
TGI (OVCAR-8 ovarian): > 100 µM
TGI (OVCAR-5 ovarian): > 100 µM
TGI (EKVX NSCLC): > 100 µM
TGI (HOP-62 NSCLC): > 100 µM
TGI (TK-10 renal): > 100 µM
TGI (MALME-3M melanoma): > 100 µM

CC(=O)Nc1ccc2c(C)c3c(nc2n1)[nH]c1ccccc13
TGI (HOP-92 NSCLC): 79 µM
TGI (SF-295 CNS): 78.8 µM
TGI (HS 578T breast): 70 µM
TGI (IGROV1 ovarian): 71.4 µM
TGI (OVCAR-8 ovarian): 87.6 µM
TGI (OVCAR-5 ovarian): > 100 µM
TGI (EKVX NSCLC): 98.1 µM
TGI (HOP-62 NSCLC): > 100 µM
TGI (TK-10 renal): > 100 µM

CN(C)CCNc1ccc2c(=O)n(CCN(C)C)c(=O)n3c4ccc(O)cc4c(=O)c1c23
TGI (HOP-92 NSCLC): 0.0941 µM
TGI (SF-295 CNS): 0.148 µM
TGI (HS 578T breast): 0.961 µM
TGI (IGROV1 ovarian): 0.53 µM
TGI (OVCAR-8 ovarian): 0.358 µM
TGI (OVCAR-5 ovarian): 2.34 µM
TGI (EKVX NSCLC): 0.57 µM
TGI (TK-10 renal): 1.21 µM
TGI (MALME-3M melanoma): 0.45 µM

S=C1c2ccc(Cl)cc2-n2cnnc2C2CSCN12 (configuration not stated)
TGI (SF-295 CNS): > 100 µM
TGI (HS 578T breast): > 100 µM
TGI (IGROV1 ovarian): > 100 µM
TGI (OVCAR-8 ovarian): > 100 µM
TGI (OVCAR-5 ovarian): > 100 µM
TGI (EKVX NSCLC): > 100 µM
TGI (HOP-62 NSCLC): > 100 µM
TGI (TK-10 renal): > 100 µM
TGI (MALME-3M melanoma): > 100 µM

COc1cccc(N2C(=O)CSC2c2cccc(Oc3ccccc3)c2)c1 (configuration not stated)
TGI (HOP-92 NSCLC): 62.8 µM
TGI (SF-295 CNS): > 100 µM
TGI (HS 578T breast): 41.4 µM
TGI (OVCAR-8 ovarian): 50.7 µM
TGI (OVCAR-5 ovarian): > 100 µM
TGI (EKVX NSCLC): 61.4 µM
TGI (HOP-62 NSCLC): > 100 µM
TGI (TK-10 renal): 25.3 µM
TGI (MALME-3M melanoma): 53.7 µM

C1=C(c2ccccc2)SC(N2CCCCC2)S1 (configuration not stated)
TGI (HOP-92 NSCLC): > 100 µM
TGI (SF-295 CNS): > 100 µM
TGI (IGROV1 ovarian): > 100 µM
TGI (OVCAR-5 ovarian): > 100 µM
TGI (EKVX NSCLC): > 100 µM
TGI (HOP-62 NSCLC): > 100 µM
TGI (TK-10 renal): > 100 µM
TGI (MALME-3M melanoma): > 100 µM

COC1CC(N)(c2ccccc2)C(O)C(C)O1 (configuration not stated)
TGI (HOP-92 NSCLC): > 100 µM
TGI (SF-295 CNS): > 100 µM
TGI (HS 578T breast): > 100 µM
TGI (IGROV1 ovarian): > 100 µM
TGI (OVCAR-8 ovarian): > 100 µM
TGI (OVCAR-5 ovarian): > 100 µM
TGI (EKVX NSCLC): > 100 µM
TGI (HOP-62 NSCLC): > 100 µM
TGI (MALME-3M melanoma): > 100 µM

CN1CCC(CNc2cc(C3(C(=O)Nc4cc(C(=O)Nc5ccc(Cl)c(C(F)(F)F)c5)ccc4F)CC3)ncn2)CC1
GI50 (HS 578T breast): 1.99 µM
TGI (HS 578T breast): 6.19 µM
GI50 (IGROV1 ovarian): 2.17 µM
TGI (IGROV1 ovarian): 6.19 µM
GI50 (OVCAR-8 ovarian): 3.72 µM
TGI (OVCAR-8 ovarian): 14.9 µM
GI50 (OVCAR-5 ovarian): 3.28 µM
TGI (OVCAR-5 ovarian): 11.4 µM
GI50 (EKVX NSCLC): 2.46 µM
TGI (EKVX NSCLC): 6.62 µM
GI50 (HOP-62 NSCLC): 2 µM
TGI (HOP-62 NSCLC): 3.97 µM
GI50 (TK-10 renal): 3.89 µM
TGI (TK-10 renal): 12.8 µM

C/C(CC(O)(C(F)(F)F)C(F)(F)F)=N\NC(N)=O
TGI (HOP-92 NSCLC): > 10 µM
TGI (SF-295 CNS): > 10 µM
TGI (HS 578T breast): > 10 µM
TGI (IGROV1 ovarian): > 10 µM
TGI (OVCAR-8 ovarian): > 10 µM
TGI (EKVX NSCLC): > 10 µM
TGI (HOP-62 NSCLC): > 10 µM
TGI (TK-10 renal): > 10 µM
TGI (MALME-3M melanoma): > 10 µM

CCCCCOc1ccc(C=Nc2ccc(CCc3ccc(N=Cc4ccc(OCCCCC)cc4)cc3)cc2)cc1
TGI (HOP-92 NSCLC): > 100 µM
TGI (SF-295 CNS): > 100 µM
TGI (IGROV1 ovarian): > 100 µM
TGI (OVCAR-8 ovarian): > 100 µM
TGI (OVCAR-5 ovarian): > 100 µM
TGI (EKVX NSCLC): > 100 µM
TGI (HOP-62 NSCLC): > 100 µM
TGI (MALME-3M melanoma): > 100 µM

Cc1ccc(C)c(NC(=O)C(=O)C(C(=O)c2ccc3ccccc3c2)C2OC(=O)c3ccccc32)c1 (configuration not stated)
TGI (HOP-92 NSCLC): 78 µM
TGI (SF-295 CNS): 66.2 µM
TGI (IGROV1 ovarian): 40.5 µM
TGI (OVCAR-8 ovarian): 20.3 µM
TGI (OVCAR-5 ovarian): 42.5 µM
TGI (EKVX NSCLC): 51.1 µM
TGI (HOP-62 NSCLC): 62.1 µM
TGI (TK-10 renal): 64.6 µM

O=C1C=CC(=O)c2c1ccc1c3ccccc3n(Cc3ccc([N+](=O)[O-])cc3)c21
TGI (SF-295 CNS): > 100 µM
TGI (IGROV1 ovarian): > 100 µM
TGI (OVCAR-8 ovarian): > 100 µM
TGI (EKVX NSCLC): > 100 µM
TGI (HOP-62 NSCLC): > 100 µM
TGI (TK-10 renal): > 100 µM

Cc1ccc(S(=O)(=O)NC(=O)Nc2nnc(S(N)(=O)=O)s2)cc1
TGI (HOP-92 NSCLC): > 100 µM
TGI (SF-295 CNS): > 100 µM
TGI (HS 578T breast): > 100 µM
TGI (OVCAR-8 ovarian): > 100 µM
TGI (OVCAR-5 ovarian): > 100 µM
TGI (EKVX NSCLC): > 100 µM
TGI (HOP-62 NSCLC): > 100 µM
TGI (TK-10 renal): > 100 µM
TGI (MALME-3M melanoma): > 100 µM

Cn1c(=O)c2c(nc3n(CC(O)CCl)c(=O)ccn23)n(C)c1=O (configuration not stated)
TGI (HOP-92 NSCLC): > 100 µM
TGI (SF-295 CNS): > 100 µM
TGI (HS 578T breast): > 100 µM
TGI (IGROV1 ovarian): > 100 µM
TGI (OVCAR-8 ovarian): > 100 µM
TGI (OVCAR-5 ovarian): > 100 µM
TGI (EKVX NSCLC): > 100 µM
TGI (HOP-62 NSCLC): > 100 µM
TGI (TK-10 renal): > 100 µM

CCOC(=O)c1c(C)n(Cc2ccc(Cl)cc2Cl)c2c1cc(O)c1[nH]c3c(c12)CCCC3
TGI (HOP-92 NSCLC): 43 µM
TGI (SF-295 CNS): 97.2 µM
TGI (IGROV1 ovarian): 75.2 µM
TGI (OVCAR-8 ovarian): 53.5 µM
TGI (OVCAR-5 ovarian): > 100 µM
TGI (EKVX NSCLC): > 100 µM
TGI (HOP-62 NSCLC): 93.7 µM
TGI (TK-10 renal): 45.4 µM
TGI (MALME-3M melanoma): 43.2 µM

Cc1cc([NH-])c([NH-])cc1C.[Cl][Pt+2][Cl]
GI50 (HOP-92 NSCLC): 16.2 µM
TGI (HOP-92 NSCLC): 40.7 µM
GI50 (SF-295 CNS): 3.36 µM
TGI (SF-295 CNS): 16.1 µM
GI50 (IGROV1 ovarian): 15.2 µM
TGI (IGROV1 ovarian): 45.4 µM
GI50 (OVCAR-8 ovarian): 16.8 µM
TGI (OVCAR-8 ovarian): > 55.5 µM
GI50 (OVCAR-5 ovarian): > 59.8 µM
TGI (OVCAR-5 ovarian): > 83.5 µM
GI50 (EKVX NSCLC): 19.7 µM
TGI (EKVX NSCLC): 46.7 µM
GI50 (HOP-62 NSCLC): > 42.8 µM
TGI (HOP-62 NSCLC): > 77 µM
GI50 (MALME-3M melanoma): 18 µM
TGI (MALME-3M melanoma): 36.6 µM

O=c1[nH]/c(=C/c2ccc(OCc3ccccc3)cn2)c(=O)[nH]/c1=C/c1ccccc1
TGI (HOP-92 NSCLC): > 100 µM
TGI (SF-295 CNS): > 100 µM
TGI (HS 578T breast): > 100 µM
TGI (IGROV1 ovarian): > 24.6 µM
TGI (OVCAR-8 ovarian): > 80.9 µM
TGI (OVCAR-5 ovarian): > 100 µM
TGI (EKVX NSCLC): > 100 µM
TGI (HOP-62 NSCLC): > 100 µM
TGI (TK-10 renal): > 100 µM

CSc1ncc2c(n1)C(C#N)C1Sc3ccccc3N1C2=O (configuration not stated)
TGI (HOP-92 NSCLC): > 100 µM
TGI (SF-295 CNS): > 100 µM
TGI (IGROV1 ovarian): > 100 µM
TGI (OVCAR-8 ovarian): > 100 µM
TGI (OVCAR-5 ovarian): > 100 µM
TGI (EKVX NSCLC): > 100 µM
TGI (HOP-62 NSCLC): > 100 µM
TGI (TK-10 renal): > 100 µM
TGI (MALME-3M melanoma): > 100 µM

C=CCC1(C#N)C(=S)NC2=C(C(=O)CC(C)(C)C2)C1c1ccccc1 (configuration not stated)
TGI (HOP-92 NSCLC): 90.2 µM
TGI (IGROV1 ovarian): > 100 µM
TGI (OVCAR-8 ovarian): 53.1 µM
TGI (OVCAR-5 ovarian): > 100 µM
TGI (EKVX NSCLC): 60.5 µM

Nc1n(CC(=O)c2ccccc2)nc2sc(-c3ccccc3)n[n+]12
TGI (SF-295 CNS): 55 µM
TGI (HS 578T breast): > 100 µM
TGI (IGROV1 ovarian): 56.6 µM
TGI (OVCAR-8 ovarian): 38.8 µM
TGI (OVCAR-5 ovarian): > 100 µM
TGI (EKVX NSCLC): > 100 µM
TGI (HOP-62 NSCLC): 52.5 µM
TGI (TK-10 renal): > 100 µM

O=C1c2cccc([N+](=O)[O-])c2C(=O)N1Cc1ccccc1
TGI (HOP-92 NSCLC): > 100 µM
TGI (SF-295 CNS): > 100 µM
TGI (HS 578T breast): > 100 µM
TGI (IGROV1 ovarian): > 100 µM
TGI (OVCAR-8 ovarian): > 100 µM
TGI (OVCAR-5 ovarian): > 100 µM
TGI (EKVX NSCLC): > 100 µM
TGI (HOP-62 NSCLC): > 100 µM
TGI (TK-10 renal): > 100 µM

Cc1ccc2nc(SCC(=O)N=Nc3c(O)[nH]c4ccccc34)n(-c3ccccc3)c(=O)c2c1
TGI (HOP-92 NSCLC): 29.6 µM
TGI (SF-295 CNS): 29.5 µM
TGI (HS 578T breast): 46.2 µM
TGI (OVCAR-5 ovarian): 29.3 µM
TGI (EKVX NSCLC): 29.2 µM
TGI (HOP-62 NSCLC): 24.6 µM
TGI (TK-10 renal): 29.2 µM
TGI (MALME-3M melanoma): 34.7 µM
